Experimental data published in the supplement of paper PMC13380429.

How the values were obtained:
Settings in all cases: 72 h
HepG2 [1] = assay: relative viability EC50 (midpoint between 100% and the lowest measured viability); higher = less toxic
U2OS [2] = assay: as above
Calu-3 [3] = assay: as above
Caco-2 [4] = assay: as above
HepG2 [5] = assay: drug sensitivity score (DSS) for viability; higher = more toxic; extreme values may be limits of the assay
U2OS [6] = assay: as above
Calu-3 [7] = assay: as above
Caco-2 [8] = assay: as above
HepG2 [9] = assay: cell viability relative to DMSO; higher = less toxic
U2OS [10] = assay: as above
Calu-3 [11] = assay: as above
Caco-2 [12] = assay: as above
Vero E6 [13] = assay: relative viability EC50 (midpoint between 100% and the lowest measured viability); higher = less toxic
Vero E6 [14] = assay: drug sensitivity score (DSS) for viability; higher = more toxic; extreme values may be limits of the assay
Vero E6 [15] = assay: cell viability relative to DMSO; higher = less toxic

| SMILES | relative viability EC50 (HepG2 [1]) | relative viability EC50 (U2OS [2]) | relative viability EC50 (Calu-3 [3]) | relative viability EC50 (Caco-2 [4]) | drug sensitivity score (HepG2 [5]) | drug sensitivity score (U2OS [6]) | drug sensitivity score (Calu-3 [7]) | drug sensitivity score (Caco-2 [8]) | cell viability (HepG2 [9]; 1 nM) | cell viability (HepG2 [9]; 10 nM) | cell viability (HepG2 [9]; 100 nM) | cell viability (HepG2 [9]; 1000 nM) | cell viability (HepG2 [9]; 10000 nM) | cell viability (U2OS [10]; 1 nM) | cell viability (U2OS [10]; 10 nM) | cell viability (U2OS [10]; 100 nM) | cell viability (U2OS [10]; 1000 nM) | cell viability (U2OS [10]; 10000 nM) | cell viability (Calu-3 [11]; 1 nM) | cell viability (Calu-3 [11]; 10 nM) | cell viability (Calu-3 [11]; 100 nM) | cell viability (Calu-3 [11]; 1000 nM) | cell viability (Calu-3 [11]; 10000 nM) | cell viability (Caco-2 [12]; 1 nM) | cell viability (Caco-2 [12]; 10 nM) | cell viability (Caco-2 [12]; 100 nM) | cell viability (Caco-2 [12]; 1000 nM) | cell viability (Caco-2 [12]; 10000 nM) | relative viability EC50 (Vero E6 [13]) | drug sensitivity score (Vero E6 [14]) | cell viability (Vero E6 [15]; 1 nM) | cell viability (Vero E6 [15]; 10 nM) | cell viability (Vero E6 [15]; 100 nM) | cell viability (Vero E6 [15]; 1000 nM) | cell viability (Vero E6 [15]; 10000 nM) |
| --- | --- | --- | --- | --- | --- | --- | --- | --- | --- | --- | --- | --- | --- | --- | --- | --- | --- | --- | --- | --- | --- | --- | --- | --- | --- | --- | --- | --- | --- | --- | --- | --- | --- | --- | --- |
| c1cn2cc(-c3ccc4cn[nH]c4c3)nc(Nc3ccc(N4CCOCC4)cc3)c2n1 [GS-9973] | > 10 µM | > 10 µM | > 10 µM | > 10 µM | 0 | 0 | 0 | 0 | 105% | 103% | 100% | 93.8% | 92.5% | 94.1% | 101% | 98.2% | 98% | 92.2% | 95.2% | 103% | 90% | 94.3% | 92.7% | 108% | 108% | 98.3% | 99.7% | 91.4% | – | – | – | – | – | – | – |
| CCCn1c(=O)c2nc(C34CC5CC(CC3C5)C4)[nH]c2n(CCC)c1=O [KW-3902] | > 10 µM | > 10 µM | > 10 µM | > 10 µM | 0 | 0 | 0 | 0.9 | 94.2% | 92.9% | 98.2% | 101% | 91.6% | 98.8% | 96.5% | 100% | 99.5% | 102% | 83.8% | 89.3% | 92.6% | 96.6% | 100% | 95.9% | 94.4% | 101% | 95.1% | 82.5% | – | – | – | – | – | – | – |
| CCCS(=O)(=O)Nc1ccc(F)c(C(=O)c2c[nH]c3ncc(Cl)cc23)c1F [PLX4720] | 1.82 µM | > 10 µM | > 10 µM | – | 4.2 | 0 | 0 | 1.7 | 104% | 94.6% | 104% | 90.9% | 49.5% | 102% | 95.8% | 97.1% | 100% | 101% | 93.4% | 89.8% | 100% | 106% | 106% | 96.8% | 96.9% | 93.6% | 91% | 73.3% | > 10 µM | 0.2 | 106% | 100% | 100% | 106% | 82.5% |
| CC(=O)O[C@]1(C(C)=O)CC[C@H]2[C@@H]3CCC4=CC(=O)CCC4=C3[C@@H](c3ccc(N(C)C)cc3)C[C@@]21C [Ulipristal acetate] | > 10 µM | > 10 µM | > 10 µM | – | 0 | 0 | 0 | 1.8 | 110% | 110% | 103% | 97.9% | 104% | 103% | 103% | 99.1% | 99.6% | 94.9% | 105% | 106% | 97.1% | 104% | 110% | 94.7% | 94.7% | 98.3% | 97.9% | 67.8% | > 10 µM | 0 | 104% | 98.2% | 99.3% | 97% | 98.3% |
| C[S+](CC[C@H](N)C(=O)O)C[C@H]1O[C@@H](n2cnc3c(N)ncnc32)[C@H](O)[C@@H]1O (stereo not given in full) [ademetionine] | > 10 µM | > 10 µM | > 10 µM | – | 0 | 0 | 0 | – | 94.7% | 105% | 89.9% | 91.4% | 91.3% | 100% | 97.9% | 98.5% | 98% | 106% | 106% | 106% | 105% | 99.8% | 96.3% | – | – | – | – | – | > 10 µM | 0 | 99.8% | 104% | 103% | 108% | 92.2% |
| CN1[C@H]2C[C@H](OC(=O)[C@H](CO)c3ccccc3)C[C@@H]1[C@@H](O)C2 [anisodamine] | > 10 µM | > 10 µM | > 10 µM | > 10 µM | 0 | 0 | 0 | 0 | 104% | 111% | 79.8% | 104% | 102% | 98% | 105% | 98.8% | 101% | 97.6% | 101% | 103% | 105% | 91.8% | 108% | 107% | 108% | 101% | 115% | 99.2% | – | – | – | – | – | – | – |
| CCC1(c2c[nH]cn2)Cc2ccccc2C1 [atipamezole] | > 10 µM | – | > 10 µM | > 10 µM | 0 | – | 0 | 0 | 102% | 95.5% | 111% | 100% | 109% | – | – | – | – | – | 96.9% | 101% | 94.9% | 106% | 93.5% | 104% | 115% | 104% | 100% | 108% | – | – | – | – | – | – | – |
| CC(C)c1cc(C(C)C)c(CC(=O)NS(=O)(=O)Oc2c(C(C)C)cccc2C(C)C)c(C(C)C)c1 [avasimibe] | > 10 µM | > 10 µM | > 10 µM | – | 1 | 0 | 0 | 0.8 | 102% | 108% | 106% | 97.6% | 79.4% | 97.6% | 98.7% | 95.4% | 99.7% | 92.3% | 92.2% | 104% | 99.1% | 98.8% | 102% | 90.3% | 96.3% | 91% | 106% | 72.3% | > 10 µM | 0.6 | 100% | 94.8% | 93.2% | 94.4% | 81% |
